Results from patent US7375090B2, “Glucopyranosyloxy-pyrazoles, pharmaceutical compositions containing these compounds, the use thereof and processed for the preparation thereof” (Boehringer Ingelheim International GmbH, priority 2003, dated 2008).
pEC50: −log10 of the molar value.

Molecular target: T1, human sodium glucose cotransporter 2 (Homo sapiens, UniProt P31639)
T1 construct: expressed in transfected cells; host or cells: CHO-K1 (ATCC No. CCL 61) or HEK293 (ATCC No. CRL-1573), stably transfected with pZeoSV-hSGLT2
T1 sequence (P31639 1-672): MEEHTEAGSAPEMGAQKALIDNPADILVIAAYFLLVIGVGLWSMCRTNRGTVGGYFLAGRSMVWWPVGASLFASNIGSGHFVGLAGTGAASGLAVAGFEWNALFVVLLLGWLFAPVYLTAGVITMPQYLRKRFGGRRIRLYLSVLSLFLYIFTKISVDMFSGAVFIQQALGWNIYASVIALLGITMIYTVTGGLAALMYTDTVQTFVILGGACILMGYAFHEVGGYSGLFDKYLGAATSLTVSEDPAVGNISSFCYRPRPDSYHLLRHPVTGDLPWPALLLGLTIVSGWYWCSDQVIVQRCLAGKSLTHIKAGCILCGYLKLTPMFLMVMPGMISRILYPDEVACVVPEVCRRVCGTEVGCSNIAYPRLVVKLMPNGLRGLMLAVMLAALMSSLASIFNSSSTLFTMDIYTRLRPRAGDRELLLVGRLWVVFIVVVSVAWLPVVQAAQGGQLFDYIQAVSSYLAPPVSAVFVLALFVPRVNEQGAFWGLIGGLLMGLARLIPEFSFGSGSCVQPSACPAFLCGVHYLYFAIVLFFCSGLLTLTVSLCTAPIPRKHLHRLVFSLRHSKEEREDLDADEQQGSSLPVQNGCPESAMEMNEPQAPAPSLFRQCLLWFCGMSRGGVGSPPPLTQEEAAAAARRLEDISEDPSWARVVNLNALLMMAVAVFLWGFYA
Experiment: SGLT-2 assay (14C-AMG uptake in CHO-hSGLT2 or HEK-hSGLT2 cells)
Type: cell-based
Details: inhibition of 14C-AMG uptake; CHO-K1 or HEK293 cells stably transfected with hSGLT2; 2 hours' incubation at 37° C.
Method: These cell lines transport ^14C-labelled alpha-methyl-glucopyranoside (14C-AMG, Amersham) into the interior of the cell in sodium-dependent manner.
The SGLT-2 assay is carried out as follows:
CHO-hSGLT2 cells are cultivated in Ham's F12 Medium (BioWhittaker) with 10% foetal calf serum and 250 μg/ml zeocin (Invitrogen), and HEK293-hSGLT2 cells are cultivated in DMEM medium with 10% foetal calf serum and 250 μg/ml zeocin (Invitrogen).
The cells are detached from the culture flasks by washing twice with PBS and subsequently treating with trypsin/EDTA. After the addition of cell culture medium the cells are centrifuged, resuspended in culture medium and counted in a Casy cell counter. Then 40,000 cells per well are seeded into a white, 96-well plate coated with poly-D-lysine and incubated overnight at 37° C., 5% CO2. The cells are washed twice with 250 μl of assay buffer (Hanks Balanced Salt Solution, 137 mM NaCl, 5.4 mM KCl, 2.8 mM CaCl2, 1.2 mM MgSO4 and 10 mM HEPES (pH7.4), 50 μg/ml of gentamycin). Two hundred-fifty microliters of assay buffer and 5 μl of test compound are then added to each well and the plate is incubated for a further 15 minutes in the incubator. Five microliters of 10% DMSO are used as the negative control. […] After this incubation the radioactivity of the ^14C-AMG absorbed is measured in a Topcount (Packard) using a ^14C scintillation program.

CCc1ccc(Cc2c(O[C@@H]3O[C@H](CO)[C@@H](O)[C@H](O)[C@H]3O)nn(C3CCOCC3)c2C)cc1 [compound (4) of Example 3, 1-(tetrahydropyran-4-yl)-3-(β-D-glucopyranosyloxy)-4-(4-ethylbenzyl)-5-methyl-1H-pyrazole]
pEC50: ~8.30
